Test results as given in ChEMBL document CHEMBL5226373, “Dichapetalins from the Twigs of Dichapetalum longipetalum with Cytotoxic Activities” (J Nat Prod, 2023).
Structures can show the parent of a compound that is named as a salt.

Columns and labels:
Format in all cases: functional, cell-based
HL-60 = assay: Cytotoxicity against human HL-60 cells assessed as inhibition of cell growth by CCK-8 assay
A549 = assay: Cytotoxicity against human A549 cells assessed as inhibition of cell growth by CCK-8 assay
MIA PaCa-2 = assay: Cytotoxicity against human MIA PaCa-2 cells assessed as inhibition of cell growth by CCK-8 assay
SU.86.86 = assay: Cytotoxicity against human SU-86-86 cells assessed as inhibition of cell growth by CCK-8 assay
YAPC = assay: Cytotoxicity against human YAPC cells assessed as inhibition of cell growth by CCK-8 assay

SMILES	IC50 (HL-60) [nM]	IC50 (A549) [nM]	IC50 (MIA PaCa-2) [nM]	IC50 (SU.86.86) [nM]	IC50 (YAPC) [nM]
C/C(=C\[C@@H]1OC(=O)[C@](O)([C@@H]2CC[C@]34C[C@]23C=C[C@@H]2[C@@]3(C)CC=C(/C=C/c5ccccc5)C(C)(C)[C@@H]3C[C@@H](O)[C@]24C)[C@H]1O)CO	1000	3800	960	–	–
C/C(=C\[C@@H]1C[C@@](O)([C@@H]2CC[C@]34C[C@]23C=C[C@@H]2[C@@]3(C)CC=C(/C=C/c5ccccc5)C(C)(C)[C@@H]3CC(=O)[C@]24C)C(=O)O1)CO	1700	2200	770	–	–
COc1ccc([C@@H]2C=C3[C@H](C[C@]4(C)[C@H]5C=C[C@]67C[C@]6(CC[C@H]7[C@H]6CO[C@@H](/C=C(\C)CO)[C@@H]6O)[C@]5(C)[C@H](O)C[C@H]4C3(C)C)OO2)cc1	> 10000	> 10000	–	–	–
C/C(=C\[C@H]1C[C@@](O)([C@@H]2CC[C@]34C[C@]23CC[C@@H]2[C@@]3(C)Cc5oc(-c6ccccc6)cc5C(C)(C)[C@@H]3C[C@H](O)[C@]24C)C(=O)O1)CO	> 10000	> 10000	–	–	–
C/C(=C\[C@H]1C[C@@H]([C@@H]2CC[C@]34C[C@]23C=C[C@@H]2[C@@]3(C)CC=C(/C=C/c5ccccc5)C(C)(C)[C@@H]3C[C@@H](O)[C@]24C)C(=O)O1)CO	350	2800	670	1600	6700
C/C(=C\[C@H]1C[C@@](O)([C@@H]2CC[C@]34C[C@]23C=C[C@@H]2[C@@]3(C)CC=C(/C=C\c5ccccc5)C(C)(C)[C@@H]3CC(=O)[C@]24C)C(=O)O1)CO	1300	3700	2800	–	–
C/C(=C\[C@@H]1OC(=O)[C@H]([C@@H]2CC[C@]34C[C@]23C=C[C@@H]2[C@@]3(C)CC(=O)/C(=C\C(=O)c5ccccc5)C(C)(C)[C@@H]3C[C@H](O)[C@]24C)[C@H]1O)CO	> 10000	> 10000	–	–	–
C/C(=C\[C@@H]1OC(=O)[C@H]([C@@H]2CC[C@]34C[C@]23C=C[C@@H]2[C@@]3(C)CC=C(/C=C/c5ccccc5)C(C)(C)[C@@H]3C[C@H](O)[C@]24C)[C@H]1O)CO	280	1800	930	–	–
COc1ccc([C@H]2C=C3[C@@H](C[C@]4(C)[C@H]5C=C[C@]67C[C@]6(CC[C@H]7[C@H]6CO[C@@H](/C=C(\C)CO)[C@@H]6O)[C@]5(C)[C@H](O)C[C@H]4C3(C)C)OO2)cc1	> 10000	> 10000	–	–	–
C/C(=C\[C@H]1C[C@@](O)([C@@H]2CC[C@]34C[C@]23C=C[C@@H]2[C@@]3(C)CC(=O)/C(=C\C(=O)c5ccccc5)C(C)(C)[C@@H]3C[C@@H](O)[C@]24C)C(=O)O1)CO	> 10000	9400	–	–	–
COc1ccc(C(=O)[C@@H]2O[C@]23C(=O)C[C@]2(C)[C@H]4C=C[C@]56C[C@]5(CC[C@H]6[C@H]5C(=O)O[C@@H](/C=C(\C)CO)[C@@H]5O)[C@]4(C)[C@H](O)C[C@H]2C3(C)C)cc1	> 10000	> 10000	–	–	–
CC(=O)O[C@@]1(C)CO[C@@]2(C1)OC(=O)[C@H]([C@@H]1CC[C@]34C[C@]13C=C[C@@H]1[C@@]3(C)CC=C5C[C@@H](c6ccccc6)OC[C@]5(C)[C@@H]3C[C@H](O)[C@]14C)[C@H]2O	> 10000	3300	–	–	–
C/C(=C\[C@@H]1OC(=O)[C@H]([C@@H]2CC[C@]34C[C@]23C=C[C@@H]2[C@@]3(C)CC=C(/C=C\c5ccccc5)C(C)(C)[C@@H]3C[C@@H](O)[C@]24C)[C@H]1O)CO	3300	9200	> 10000	–	–
C/C(=C\[C@H]1C[C@@](O)([C@@H]2CC[C@]34C[C@]23C=C[C@@H]2[C@@]3(C)CC=C5C[C@@H](c6ccccc6)OC[C@]5(C)[C@@H]3C[C@@H](O)[C@]24C)C(=O)O1)CO	> 10000	1100	–	–	–
COc1ccc(/C=C/C2=CC[C@]3(C)[C@H]4C=C[C@]56C[C@]5(CC[C@H]6[C@H]5C(=O)O[C@@H](/C=C(\C)CO)[C@@H]5O)[C@]4(C)[C@H](O)C[C@H]3C2(C)C)cc1	360	1200	390	1700	> 10000
COc1cccc2c1C(=O)c1c(O)c3c(c(O)c1C2=O)C[C@@](O)(C(=O)CO)C[C@@H]3O[C@H]1C[C@H](N)[C@H](O)[C@H](C)O1 [DOXORUBICIN HYDROCHLORIDE]	–	–	250	330	310
